What all share (test): growth of human tumour cells (NCI), 48 h
Assay [1] has as its system A498 renal.
The test system of assay [2] is HCC-2998 colon.
Assay [3] has as its system OVCAR-5 ovarian.
Assay [4] concerns SK-MEL-5 melanoma.
The test system of assay [5] is U251 CNS.

Each structure is given as a SMILES string. Several values for one entry are separate records, joined by “and”; a condition that tells them apart may be missing. Equal values may be shown once.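 In this assay, cells in 96-well plates receive the compound at five concentrations for 48 hours. Endpoints are linearly interpolated between the surrounding concentrations. Abbreviation: GI50, concentration required for 50% inhibition of growth. TGI denotes the concentration required for complete inhibition of growth.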 Where a SMILES comes first, the peptide text is derived from it. The star is where a group is joined. Boc = CC(C)(C)OC(=O)* A value given as a limit tells only on which side of the number the result lay.

In the case of `Cn1c(-c2cccc([N+](=O)[O-])c2)[n+](C)c2ccccc21`, the TGI in assay [1], in assay [2], in assay [3], in assay [4] and in assay [5] was above 100 µM throughout.
On to `C=CC(Cl)(CBr)CCC(Br)C(C)(C)Cl` (stereo not drawn), for which the TGI in assay [1] is 27.2 µM; in assay [2], 28.8 µM; in assay [3], 31.1 µM; in assay [4] it was 25.8 µM; in assay [5], 27.4 µM.
`COc1ccccc1C(=O)c1c(NCc2ccccc2)c(=O)c1=O`: the TGI in assay [1], in assay [2], in assay [3], in assay [4] and in assay [5] was above 100 µM throughout.
Turning to `Cc1ccc(NC(=O)c2cc(S(=O)(=O)Nc3nc4ncccc4[nH]3)c(SSc3cc(Cl)c(C(=O)Nc4ccc(C)cc4)cc3S(=O)(=O)Nc3nc4ncccc4[nH]3)cc2Cl)cc1`, the TGI in assay [1], in assay [2], in assay [3], in assay [4] and in assay [5] was above 100 µM throughout.
Consider `O=C1CSC(c2cccc([N+](=O)[O-])c2)N1c1ccc(-n2c(-c3ccccc3)nc3ccccc3c2=O)cc1` (stereo not drawn), for which the TGI in assay [1], in assay [2], in assay [3], in assay [4] and in assay [5] was above 100 µM each time.
With `O=[N+]([O-])c1cc(-c2nc(-c3ccccc3)c(-c3ccccc3)[nH]2)c(O)c([N+](=O)[O-])c1`, the TGI is 40.5 µM in assay [1]; 30.8 µM in assay [2]; 50.3 µM in assay [3]; 36 µM in assay [4]; 29.5 µM in assay [5].
On to `CCOC(=O)c1c(N2CCOCC2)[nH]c(=O)c(C(c2ccco2)c2c(O)c(C(=O)OCC)c(N3CCOCC3)[nH]c2=O)c1O`, for which the TGI in assay [1], in assay [2], in assay [3], in assay [4] and in assay [5] was above 100 µM throughout.
For the compound `N#C/C(N)=C(\C#N)NC(=O)C(=O)N/C(C#N)=C(\N)C#N`, the TGI in assay [1], in assay [2], in assay [3], in assay [4] and in assay [5] was above 100 µM each time.
Consider `CC(C(O)c1ccccc1)C(O)(C(F)(F)F)C(F)(F)F` (stereo not drawn), for which the TGI in assay [1], in assay [2], in assay [3], in assay [4] and in assay [5] was above 100 µM throughout.
As for `CC(=O)c1cc2ccccc2oc1=O`, the TGI in assay [1], in assay [2], in assay [3], in assay [4] and in assay [5] was above 100 µM in each case.
On to `CCCCCCCCCCNC(=O)CCC(NC(=O)c1ccc(N(C)Cc2cnc3nc(N)nc(N)c3n2)cc1)C(=O)NCCCCCCCCCC` (stereo not drawn), for which the TGI in assay [1] was 73.5 µM; in assay [2], 48.6 µM; in assay [3], 66.1 µM; in assay [4], 12.6 µM; in assay [5], 14.1 µM.
For `COC(=O)c1ccccc1C1CN=NC12Cc1cc(C)ccc1C2=O` (stereo not drawn) the same measures were above 100 µM, above 100 µM, above 100 µM, above 100 µM and above 100 µM.
As to `CC(C)/C(Cl)=N\OC(=O)Nc1cccc(Cl)c1`, the TGI in assay [1] was 33.2 µM; in assay [2] it was 31.7 µM; in assay [3], 18.3 µM; in assay [4] it was 26.6 µM; in assay [5] it was 34.4 µM.
With `CCC(=O)Nc1ccc(N2C(=O)C(Cl)C2c2ccc(SC)cc2)cc1` (stereo not drawn), the TGI was above 100 µM in assay [1], 96.9 µM in assay [2], above 100 µM in assay [3] and 79.8 µM in assay [4].
For `CC(C)(C)c1cc(O)ccc1O`, the TGI in assay [1] was above 100 µM; in assay [2], above 17.6 µM; in assay [3], above 100 µM; in assay [4], above 100 µM; in assay [5], 5.56 µM.
Regarding `N[C@H]1CCCC[C@@H]1N1C(=O)c2ccccc2C1(O)c1ccc(Cl)cc1` (stereo partly drawn), the TGI is 28.1 µM in assay [1]; 3.5 µM in assay [2]; 28.6 µM in assay [3]; 22.5 µM in assay [4]; 26.6 µM in assay [5].
For `C=C(Br)CNC(=O)CCC(=O)NCC(=C)Br`, in that order: above 100 µM, above 100 µM, above 100 µM, above 100 µM and above 100 µM.
For `C/C(=N\NC(=S)NCCCNC(=S)N/N=C(\C)c1ccccn1)c1ccccn1` the same measures were 26.2 µM, above 59.1 µM, above 90.3 µM, above 22 µM and above 47.1 µM.
On to `CCOc1ccc2nc(NC(=O)C(=O)C(c3cnc4ccccc4n3)[N+](=O)[O-])sc2c1` (stereo not drawn), for which the TGI in assay [1], in assay [2], in assay [3] and in assay [4] was above 100 µM each time.
In the case of `Cc1ccc2c(c1)-c1nc(N)c(C#N)c(-c3ccccc3)c1CCS2(=O)=O`, the TGI in assay [1] is 98.9 µM; in assay [2], above 100 µM; in assay [3], above 100 µM; in assay [4], above 100 µM; in assay [5] it was above 100 µM.
With `CN(C)c1nc(Cl)c2c(-c3ccccc3)c(-c3ccccc3)oc2n1`, the TGI in assay [1], in assay [2], in assay [3], in assay [4] and in assay [5] was above 100 µM throughout.
In the case of `CCC(C#N)NCc1cccc(CNC(C#N)CC)c1` (stereo not drawn), the TGI in assay [1] is above 100 µM; in assay [2], above 100 µM; in assay [3], 34.2 µM; in assay [4], above 100 µM; in assay [5], above 100 µM.
Regarding `O=c1/c(=C/c2ccc(-c3ccc(Cl)cc3Cl)o2)sc2n1[C@@H](c1ccc(Cl)cc1)C=C(c1cc(F)c(Cl)cc1Cl)N=2`, the TGI in assay [1] is 4.71 µM; in assay [2] it was 56.2 µM; in assay [3], above 100 µM; in assay [4], above 100 µM; in assay [5], above 100 µM.
With `CC(=O)OCc1ccc2oc(=O)c(C(=O)Oc3ccccc3)cc2c1`, the TGI in assay [1], in assay [2], in assay [3], in assay [4] and in assay [5] was above 100 µM each time.
`COc1ccc(SCc2cc(OCc3ccccc3)c(OCc3ccccc3)c(OCc3ccccc3)c2)cc1`: the TGI in assay [1] was determined as 3.49 µM; in assay [2], 2.85 µM; in assay [3], 3.4 µM; in assay [5], 3.22 µM.
For the compound `C[C@@H]1CC[C@@H]2[C@@H](C1)O[C@@H]([C@H](C)OCc1ccccc1)SC2(C)C`, the TGI in assay [1] came to 39.3 µM; in assay [2], 31.8 µM; in assay [3], 31.7 µM; in assay [4], 33 µM; in assay [5] it was 33.5 µM.
For `CCCCn1c2c(n(CCCC)c1=S)-c1c(n(CCCC)c(=S)n1CCCC)SSc1c(n(CCCC)c(=S)n1CCCC)-c1c(n(CCCC)c(=S)n1CCCC)SSc1c(n(CCCC)c(=S)n1CCCC)-c1c(n(CCCC)c(=S)n1CCCC)SS2`, the TGI in assay [1] was above 50 µM; in assay [2] it was above 50 µM; in assay [3] it was 25.4 µM; in assay [4], above 36.6 µM; in assay [5], above 50 µM.
For `COC(=O)C(Cc1c[nH]c2ccccc12)NC(=O)C(Cc1c[nH]c2ccccc12)NC(=O)C(Cc1c[nH]c2ccccc12)NC(=O)C(Cc1c[nH]c2ccccc12)NC(=O)C(Cc1c[nH]c2ccccc12)NC(=O)C(Cc1c[nH]c2ccccc12)NC(=O)C(Cc1c[nH]c2ccccc12)NC(=O)C(Cc1c[nH]c2ccccc12)NC(=O)OC(C)(C)C` (stereo not drawn) (Boc-WWWWWWWW-OMe; configuration not given here), the TGI was 55.6 µM in assay [1]; above 100 µM in assay [2]; above 100 µM in assay [3]; 73.3 µM in assay [4]; above 100 µM in assay [5].
For the compound `COC(=O)C1OC(O[C@H]2CC[C@]3(C)[C@H]4CC=C5[C@@H]6CC(C)(C)CC[C@]6(C(=O)OC6OCC(O)C(O)C6OC6OC(C)C(OC7OCC(O)C(O)C7O)C(O)C6O)CC[C@@]5(C)[C@]4(C)CC[C@H]3C2(C)C)C(O)C(O)C1O` (stereo partly drawn), in assay [1], the GI50 is 7.25 µM and 20.7 µM. In addition, the TGI was 20 µM and 35.3 µM in assay [1]; 25.4 µM and 29.5 µM in assay [2]; 31.4 µM and 42.8 µM in assay [3]; 31.8 µM and 32.5 µM in assay [4]; 33.3 µM and 33.8 µM in assay [5].
For `N#Cc1ccc(-n2c3ccccc3c3ccc4c(c32)C(=O)C=CC4=O)cc1`, the TGI in assay [1] came out at 11 µM; in assay [2], 18.3 µM; in assay [3], 34.8 µM; in assay [4] it was 12.2 µM; in assay [5], 17.8 µM.

The record behind these values is PubChem BioAssay (NCI).
